Data from paper PMC8952364, “Polyphenols as Inhibitors of Antibiotic Resistant Bacteria—Mechanisms Underlying Rutin Interference with Bacterial Virulence” (Pharmaceuticals, 2022).
In brackets after ≈: the same amount, converted by molar mass. Like-named read-outs stand apart in the source and are kept apart here.

Legend:
[1] = test system: Methicillin resistant S. aureus IBRS MRSA 011; assay: Antimicrobial microdilution assay (MIC/MBC); type: cell-based, Staphylococcus aureus
Description: (§1) The bacterial suspension (0.5 Mc Farland) was prepared, and twenty-fold dilutions of these suspensions were mixed in a 1:10 ratio with the corresponding polyphenol dilution (0.0039–1 mg/mL). Microtiter plates were incubated at 37 °C for 24 h. The lowest concentrations without visible growth (under a binocular microscope) were defined as MICs. The bactericidal concentrations (MBCs) were determined by serial subcultivation of 2 μL of the well’s content and further incubation for 24 h at 37 °C. Streptomycin (SigmaAldrich, Darmstadt, Germany) was used as a positive control. The polyphenols were obtained from Extrasynthese, Rhone, France (rutin, isoquercitrin) and SigmaAldrich, Germany (hesperetin, hesperidin, naringenin, naringin, taxifolin, morin, chlorogenic acid, ferulic acid, p-coumaric acid, and gallic acid). The stock compounds were prepared in ethanol (30%), and adequate ethanol concentrations were used as the negative control in the assays. Experiments were done in triplicate.

P. aeruginosa IBRS P001 = assay: Antimicrobial microdilution assay (MIC/MBC); type: cell-based, Pseudomonas aeruginosa; conditions: Pseudomonas aeruginosa, IBRSP001; for MIC: 37 °C, 24 h, read-out: MIC; for MBC: subcultivation, 24 h at 37 °C, read-out: MBC
Description: as §1

P. aeruginosa MMA83 = assay: Antimicrobial microdilution assay (MIC/MBC); type: cell-based, Pseudomonas aeruginosa; conditions: Pseudomonas aeruginosa, MMA83; for MIC: 37 °C, 24 h, read-out: MIC; for MBC: subcultivation, 24 h at 37 °C, read-out: MBC
Description: as §1

E. coli IBRS E003 = assay: Antimicrobial microdilution assay (MIC/MBC); type: cell-based, Escherichia coli; conditions: Escherichia coli, IBRSE003; for MIC: 37 °C, 24 h, read-out: MIC; for MBC: subcultivation, 24 h at 37 °C, read-out: MBC
Description: as §1

E. coli IMD989 = assay: Antimicrobial microdilution assay (MIC/MBC); type: cell-based, Escherichia coli; conditions: Escherichia coli, IMD989; for MIC: 37 °C, 24 h, read-out: MIC; for MBC: subcultivation, 24 h at 37 °C, read-out: MBC
Description: as §1

A. baumannii 6077/12 = assay: Antimicrobial microdilution assay (MIC/MBC); type: cell-based, Acinetobacter baumannii; conditions: Acinetobacter baumannii, 6077/12; for MIC: 37 °C, 24 h, read-out: MIC; for MBC: subcultivation, 24 h at 37 °C, read-out: MBC
Description: as §1

A. baumannii S2/2 = assay: Antimicrobial microdilution assay (MIC/MBC); type: cell-based, Acinetobacter baumannii; conditions: Acinetobacter baumannii, S2/2; for MIC: 37 °C, 24 h, read-out: MIC; for MBC: subcultivation, 24 h at 37 °C, read-out: MBC
Description: as §1

K. pneumoniae IT977 = assay: Antimicrobial microdilution assay (MIC/MBC); type: cell-based, Klebsiella pneumoniae; conditions: Klebsiella pneumoniae, IT977; for MIC: read-out: MIC; for MBC: subcultivation, 24 h at 37 °C, read-out: MBC
Description: as §1

K. pneumoniae Ni9 = assay: Antimicrobial microdilution assay (MIC/MBC); type: cell-based, Klebsiella pneumoniae; conditions: Klebsiella pneumoniae, NI9; for MIC: read-out: MIC; for MBC: subcultivation, 24 h at 37 °C, read-out: MBC
Description: as §1

A. xylosoxidans 37F = assay: Antimicrobial microdilution assay (MIC/MBC); type: cell-based, Achromobacter xylosoxidans; conditions: Achromobacter xylosoxidans, 37F; for MIC: 37 °C, 24 h, read-out: MIC; for MBC: subcultivation, 24 h at 37 °C, read-out: MBC
Description: as §1

S. infantis 1371/1 = assay: Antimicrobial microdilution assay (MIC/MBC); type: cell-based, Salmonella Infantis; conditions: Salmonella enterica, 1371/1; for MIC: 37 °C, 24 h, read-out: MIC; for MBC: subcultivation, 24 h at 37 °C, read-out: MBC
Description: as §1

HaCaT cells = assay: Cytotoxicity in HaCaT cell line (crystal violet assay); type: cell-based, human; conditions: for IC50: Homo sapiens, HaCaT, 24 h treatment, crystal violet, read-out: IC50 (compound concentration that inhibited 50% of the cell growth)
Description: For determination of the polyphenols’ cytotoxic effect, a crystal violet assay was used, with modifications. The cytotoxic effect of polyphenols was analyzed on spontaneously immortalized human skin keratinocytes (HaCaT, AddexBio No. T0020001, San Diego, CA, USA) cell lines. […] Cells (1 × 10^4 cells/well) were seeded in a 96-well plate (Sarstedt, Nümbrecht, Germany) 24 h before treatment. […] Cells were incubated with the compounds for 24 h. […] After crystal violet was removed, the plates were washed in a stream of tap water and left to air-dry at room temperature for 24 h. The absorbance was measured in a microplate reader (Multiskan™ FC Microplate Photometer, Thermo Scientific™) at 590 nm. The results were expressed as IC50 value in μg/mL. The criterion used to categorize the cytotoxic activity polyphenols was as follows: […] All analyses were performed in triplicate; each replicate was also quantified three times. Data were expressed as mean standard deviation, where applicable.

[2] = test system: P. aeruginosa IBRS P001 biofilm; assay: Crystal violet antibiofilm assay (biofilm formation); type: cell-based, Pseudomonas aeruginosa; conditions: MIC and sub-MIC, 24 h, crystal violet, Figure 1
Description: After incubation, each well was washed twice with sterile PBS (phosphate-buffered saline, pH 7.4) and fixed with methanol for 10 min. After removal of methanol the plate was air-dried. The biofilm was stained with 0.1% crystal violet (Bio-Merieux, Marcy l’Etoile, France) for 30 min. The plate was washed with water, air dried, and the stain was dissolved with 200 μL of 96% ethanol (Zorka, Sabac, Serbia). The absorbance was read at 620 nm on a Multiskan™ FC microplate photometer (Thermo Scientific™, Waltham, MA, USA). The results are presented as biofilm forming capacity (%) compared to control.

[3] = test system: eleven antibiotic resistant strains of bacteria; assay: Antimicrobial assay, summary over the examined strains; type: cell-based; conditions: summary of Table 1
Description: as §1

[4] = test system: Escherichia coli K-12 MG1655, Salmonella enterica serovar Typhimurium LT2, and Pseudomonas putida ATCC 795; set-up: method as in PMID 18045389; conditions: cited from earlier work
[5] = Staphylococcus aureus, MRSA, 24 h
[6] = restated in the discussion for two strains examined
[7] = Staphylococcus aureus, MRSA, 37 °C, 24 h, read-out: MIC
[8] = Staphylococcus aureus, MRSA, subcultivation, 24 h at 37 °C, read-out: MBC

| SMILES | MIC (P. aeruginosa IBRS P001) [µg/mL] | MBC (P. aeruginosa IBRS P001) [µg/mL] | MIC (P. aeruginosa MMA83) [µg/mL] | MBC (P. aeruginosa MMA83) [µg/mL] | MIC (E. coli IBRS E003) [µg/mL] | MBC (E. coli IBRS E003) [µg/mL] | MIC (E. coli IMD989) [µg/mL] | MBC (E. coli IMD989) [µg/mL] | MIC (A. baumannii 6077/12) [µg/mL] | MBC (A. baumannii 6077/12) [µg/mL] | MIC (A. baumannii S2/2) [µg/mL] | MBC (A. baumannii S2/2) [µg/mL] | MIC (K. pneumoniae IT977; 37 °C, 24 h) [µg/mL] | MBC (K. pneumoniae IT977) [µg/mL] | MIC (K. pneumoniae Ni9; 37 °C, 24 h) [µg/mL] | MBC (K. pneumoniae Ni9) [µg/mL] | MIC (A. xylosoxidans 37F) [µg/mL] | MBC (A. xylosoxidans 37F) [µg/mL] | MIC (S. infantis 1371/1) [µg/mL] | MBC (S. infantis 1371/1) [µg/mL] | further results |
| --- | --- | --- | --- | --- | --- | --- | --- | --- | --- | --- | --- | --- | --- | --- | --- | --- | --- | --- | --- | --- | --- |
| O=C(/C=C/c1ccc(O)c(O)c1)O[C@@H]1C[C@](O)(C(=O)O)C[C@@H](O)[C@H]1O [Chlorogenic Acid, chlorogenic acid] | 500 (≈ 1410 µM) | 1000 (≈ 2820 µM) | 1000 (≈ 2820 µM) | > 1000 | > 1000 | > 1000 | > 1000 | > 1000 | 1000 (≈ 2820 µM) | 1000 (≈ 2820 µM) | 1000 (≈ 2820 µM) | > 1000 | > 1000 | > 1000 | > 1000 | > 1000 | 1000 (≈ 2820 µM) | > 1000 | > 1000 | > 1000 | MBC [1, 5]: 1000 µg/mL (≈ 2820 µM); MIC [1, 5]: 500 µg/mL (≈ 1410 µM); MIC (K. pneumoniae IT977; [6]): > 1000 µg/mL; MIC (K. pneumoniae Ni9; [6]): > 1000 µg/mL; IC50 (HaCaT cells): 279 ± 8 µg/mL (≈ 787 µM) |
| COc1ccc([C@@H]2CC(=O)c3c(O)cc(O)cc3O2)cc1O [Hesperetin, hesperetin] | 500 (≈ 1650 µM) | 1000 (≈ 3310 µM) | 1000 (≈ 3310 µM) | 1000 (≈ 3310 µM) | > 1000 | > 1000 | > 1000 | > 1000 | 500 (≈ 1650 µM) | 500 (≈ 1650 µM) | 500 (≈ 1650 µM) | 500 (≈ 1650 µM) | > 1000 | > 1000 | 1000 (≈ 3310 µM) | 1000 (≈ 3310 µM) | 1000 (≈ 3310 µM) | 1000 (≈ 3310 µM) | > 1000 | > 1000 | MIC [1, 7]: 500 µg/mL (≈ 1650 µM); MBC [1, 8]: 1000 µg/mL (≈ 3310 µM); reduction of biofilm formation (biomass), in words [2]: significant (****, p < 0.0001) reduction; cytotoxicity towards HaCaT, in words (HaCaT cells): non-cytotoxic properties; IC50 (HaCaT cells): > 1000 µg/mL; MIC towards a range of antibiotic-resistant bacterial strains [3]: ≥ 500 µg/mL; MIC [4]: ≥ 1000 µg/mL |
| O=C1C[C@@H](c2ccc(O)cc2)Oc2cc(O)cc(O)c21 [Naringenin, naringenin] | 250 (≈ 918 µM) | 500 (≈ 1840 µM) | 1000 (≈ 3670 µM) | 1000 (≈ 3670 µM) | 500 (≈ 1840 µM) | 1000 (≈ 3670 µM) | 1000 (≈ 3670 µM) | > 1000 | 500 (≈ 1840 µM) | 500 (≈ 1840 µM) | 500 (≈ 1840 µM) | 500 (≈ 1840 µM) | 1000 (≈ 3670 µM) | 1000 (≈ 3670 µM) | 250 (≈ 918 µM) | 500 (≈ 1840 µM) | 1000 (≈ 3670 µM) | 1000 (≈ 3670 µM) | > 1000 | > 1000 | MIC ([1]; 37 °C, 24 h): 250 µg/mL (≈ 918 µM); MIC [1, 7]: 250 µg/mL (≈ 918 µM); MBC [1, 8]: 500 µg/mL (≈ 1840 µM); IC50 (HaCaT cells): 528 ± 47 µg/mL (≈ 1940 µM) |
